# PubChem BioAssay (NCI)
#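 Five concentrations, 48 hours, 96-well plates. TGI: total growth inhibition.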
# How the values were obtained:
# Test in all cases: NCI-60 cell line screen, 48 h
# SF-539 CNS = test system: SF-539 CNS
# HT29 colon = test system: HT29 colon
# CCRF-CEM leukemia = test system: CCRF-CEM leukemia
# SW-620 colon = test system: SW-620 colon
# HCT-116 colon = test system: HCT-116 colon
# NCI-H522 lung = test system: NCI-H522 lung
# SN12C renal = test system: SN12C renal
# T-47D breast = test system: T-47D breast
# SK-OV-3 ovarian = test system: SK-OV-3 ovarian
# HOP-92 NSCLC = test system: HOP-92 NSCLC
# MDA-N = test system: MDA-N
# IGROV1 ovarian = test system: IGROV1 ovarian
# U251 CNS = test system: U251 CNS
# NCI-H23 lung = test system: NCI-H23 lung
# MDA-MB-231 breast = test system: MDA-MB-231 breast
# PC-3 prostate = test system: PC-3 prostate
# SNB-19 CNS = test system: SNB-19 CNS
# A498 renal = test system: A498 renal
# SF-268 CNS = test system: SF-268 CNS
# TK-10 renal = test system: TK-10 renal
# SK-MEL-2 melanoma = test system: SK-MEL-2 melanoma
# A549 NSCLC = test system: A549 NSCLC
# ACHN renal = test system: ACHN renal
# UO-31 renal = test system: UO-31 renal
# RXF 393 renal = test system: RXF 393 renal
# SK-MEL-28 melanoma = test system: SK-MEL-28 melanoma
# EKVX NSCLC = test system: EKVX NSCLC
# HOP-62 NSCLC = test system: HOP-62 NSCLC
# DU-145 prostate = test system: DU-145 prostate
# KM12 colon = test system: KM12 colon
# UACC-62 melanoma = test system: UACC-62 melanoma
# OVCAR-8 ovarian = test system: OVCAR-8 ovarian
# HCT-15 colon = test system: HCT-15 colon
# HCC-2998 colon = test system: HCC-2998 colon
# LOX IMVI melanoma = test system: LOX IMVI melanoma
# HL-60(TB) leukemia = test system: HL-60(TB) leukemia
# MCF7 breast = test system: MCF7 breast
# MDA-MB-435 = test system: MDA-MB-435
# NCI/ADR-RES ovarian = test system: NCI/ADR-RES ovarian
# OVCAR-4 ovarian = test system: OVCAR-4 ovarian
# MOLT-4 leukemia = test system: MOLT-4 leukemia
# SK-MEL-5 melanoma = test system: SK-MEL-5 melanoma
# M14 melanoma = test system: M14 melanoma
# SR leukemia = test system: SR leukemia
# RPMI-8226 leukemia = test system: RPMI-8226 leukemia
# NCI-H460 lung = test system: NCI-H460 lung
# OVCAR-3 ovarian = test system: OVCAR-3 ovarian
# NCI-H226 lung = test system: NCI-H226 lung
# 786-0 renal = test system: 786-0 renal
# SF-295 CNS = test system: SF-295 CNS
# UACC-257 melanoma = test system: UACC-257 melanoma
# HS 578T breast = test system: HS 578T breast
# COLO 205 colon = test system: COLO 205 colon
# K-562 leukemia = test system: K-562 leukemia
# CAKI-1 renal = test system: CAKI-1 renal
# OVCAR-5 ovarian = test system: OVCAR-5 ovarian
# MALME-3M melanoma = test system: MALME-3M melanoma
# SNB-75 CNS = test system: SNB-75 CNS
# BT-549 breast = test system: BT-549 breast
smiles,measurement,setting,value
Cc1c(C(=O)O)n2c(=S)[nH]nc2c2ccccc12,TGI,SF-539 CNS,> 100 µM
same,TGI,HT29 colon,> 100 µM
same,TGI,CCRF-CEM leukemia,> 100 µM
same,TGI,SW-620 colon,> 100 µM
same,TGI,HCT-116 colon,> 100 µM
same,TGI,NCI-H522 lung,> 100 µM
same,TGI,SN12C renal,> 100 µM
same,TGI,T-47D breast,> 100 µM
same,TGI,SK-OV-3 ovarian,> 100 µM
same,TGI,HOP-92 NSCLC,> 100 µM
same,TGI,MDA-N,> 100 µM
same,TGI,IGROV1 ovarian,> 100 µM
same,TGI,U251 CNS,> 100 µM
same,TGI,NCI-H23 lung,> 100 µM
same,TGI,MDA-MB-231 breast,> 100 µM
same,TGI,PC-3 prostate,> 100 µM
same,TGI,SNB-19 CNS,> 100 µM
same,TGI,A498 renal,> 100 µM
same,TGI,SF-268 CNS,> 100 µM
same,TGI,TK-10 renal,> 100 µM
same,TGI,SK-MEL-2 melanoma,> 100 µM
same,TGI,A549 NSCLC,> 100 µM
same,TGI,ACHN renal,> 100 µM
same,TGI,UO-31 renal,> 100 µM
same,TGI,RXF 393 renal,> 100 µM
same,TGI,SK-MEL-28 melanoma,> 100 µM
same,TGI,EKVX NSCLC,> 100 µM
same,TGI,HOP-62 NSCLC,> 100 µM
same,TGI,DU-145 prostate,> 100 µM
same,TGI,KM12 colon,> 100 µM
same,TGI,UACC-62 melanoma,> 100 µM
same,TGI,OVCAR-8 ovarian,> 100 µM
same,TGI,HCT-15 colon,> 100 µM
same,TGI,HCC-2998 colon,> 100 µM
same,TGI,LOX IMVI melanoma,> 100 µM
same,TGI,HL-60(TB) leukemia,> 100 µM
same,TGI,MCF7 breast,> 100 µM
same,TGI,MDA-MB-435,> 100 µM
same,TGI,NCI/ADR-RES ovarian,> 100 µM
same,TGI,OVCAR-4 ovarian,> 100 µM
same,TGI,MOLT-4 leukemia,> 100 µM
same,TGI,SK-MEL-5 melanoma,> 100 µM
same,TGI,M14 melanoma,> 100 µM
same,TGI,SR leukemia,> 100 µM
same,TGI,RPMI-8226 leukemia,> 100 µM
same,TGI,NCI-H460 lung,> 100 µM
same,TGI,OVCAR-3 ovarian,> 100 µM
same,TGI,NCI-H226 lung,> 100 µM
same,TGI,786-0 renal,> 100 µM
same,TGI,SF-295 CNS,> 100 µM
same,TGI,UACC-257 melanoma,> 100 µM
same,TGI,HS 578T breast,> 100 µM
same,TGI,COLO 205 colon,> 100 µM
same,TGI,K-562 leukemia,> 100 µM
same,TGI,CAKI-1 renal,> 100 µM
same,TGI,OVCAR-5 ovarian,> 100 µM
Cc1cc(Cl)nc2ccc(Cc3ccc4nc(Cl)cc(C)c4c3)cc12,TGI,SF-539 CNS,32 µM
same,TGI,HT29 colon,> 100 µM
same,TGI,CCRF-CEM leukemia,> 100 µM
same,TGI,SW-620 colon,> 100 µM
same,TGI,HCT-116 colon,> 100 µM
same,TGI,NCI-H522 lung,> 100 µM
same,TGI,SN12C renal,> 100 µM
same,TGI,T-47D breast,54.8 µM
same,TGI,SK-OV-3 ovarian,47.1 µM
same,TGI,HOP-92 NSCLC,> 100 µM
same,TGI,MDA-N,> 100 µM
same,TGI,IGROV1 ovarian,> 100 µM
same,TGI,U251 CNS,79.3 µM
same,TGI,NCI-H23 lung,> 100 µM
same,TGI,MDA-MB-231 breast,> 100 µM
same,TGI,PC-3 prostate,> 100 µM
same,TGI,SNB-19 CNS,> 100 µM
same,TGI,A498 renal,69.1 µM
same,TGI,SF-268 CNS,> 100 µM
same,TGI,MALME-3M melanoma,> 100 µM
same,TGI,SNB-75 CNS,19.8 µM
same,TGI,TK-10 renal,59.7 µM
same,TGI,SK-MEL-2 melanoma,> 100 µM
same,TGI,A549 NSCLC,> 100 µM
same,TGI,ACHN renal,70.8 µM
same,TGI,UO-31 renal,> 100 µM
same,TGI,RXF 393 renal,27.6 µM
same,TGI,SK-MEL-28 melanoma,> 100 µM
same,TGI,EKVX NSCLC,> 100 µM
same,TGI,HOP-62 NSCLC,96.9 µM
same,TGI,DU-145 prostate,> 100 µM
same,TGI,KM12 colon,> 100 µM
same,TGI,UACC-62 melanoma,> 100 µM
same,TGI,BT-549 breast,> 100 µM
same,TGI,OVCAR-8 ovarian,> 100 µM
same,TGI,HCT-15 colon,> 100 µM
same,TGI,LOX IMVI melanoma,> 100 µM
same,TGI,MCF7 breast,91.5 µM
same,TGI,MDA-MB-435,> 100 µM
same,TGI,NCI/ADR-RES ovarian,> 100 µM
same,TGI,OVCAR-4 ovarian,> 100 µM
same,TGI,MOLT-4 leukemia,> 100 µM
same,TGI,SK-MEL-5 melanoma,> 100 µM
same,TGI,M14 melanoma,> 100 µM
same,TGI,SR leukemia,> 100 µM
same,TGI,RPMI-8226 leukemia,> 100 µM
same,TGI,NCI-H460 lung,> 100 µM
same,TGI,OVCAR-3 ovarian,> 100 µM
same,TGI,NCI-H226 lung,> 100 µM
same,TGI,786-0 renal,30.7 µM
same,TGI,SF-295 CNS,> 100 µM
same,TGI,UACC-257 melanoma,> 100 µM
same,TGI,HS 578T breast,> 100 µM
same,TGI,COLO 205 colon,> 100 µM
same,TGI,K-562 leukemia,> 100 µM
same,TGI,CAKI-1 renal,> 100 µM
same,TGI,OVCAR-5 ovarian,> 100 µM
